Experimental data: patent publication US8445529B2, “Indole derivative having, carbamoyl group, ureido group and substituted oxy group” (Santen Pharmaceutical Co., Ltd., priority 2008, dated 2013)

Each molecule was assayed against T1, IKKβ (Homo sapiens, UniProt O14920) (assay: IKKβ inhibition assay by fluorescence polarization (IMAP kit)). Conditions: test compound at 1 μM; inhibition rate exceeding 100% is indicated as 100%.
T1 construct: purchased Upstate Biotechnology Inc. 14-485
T1 sequence (O14920 1-756): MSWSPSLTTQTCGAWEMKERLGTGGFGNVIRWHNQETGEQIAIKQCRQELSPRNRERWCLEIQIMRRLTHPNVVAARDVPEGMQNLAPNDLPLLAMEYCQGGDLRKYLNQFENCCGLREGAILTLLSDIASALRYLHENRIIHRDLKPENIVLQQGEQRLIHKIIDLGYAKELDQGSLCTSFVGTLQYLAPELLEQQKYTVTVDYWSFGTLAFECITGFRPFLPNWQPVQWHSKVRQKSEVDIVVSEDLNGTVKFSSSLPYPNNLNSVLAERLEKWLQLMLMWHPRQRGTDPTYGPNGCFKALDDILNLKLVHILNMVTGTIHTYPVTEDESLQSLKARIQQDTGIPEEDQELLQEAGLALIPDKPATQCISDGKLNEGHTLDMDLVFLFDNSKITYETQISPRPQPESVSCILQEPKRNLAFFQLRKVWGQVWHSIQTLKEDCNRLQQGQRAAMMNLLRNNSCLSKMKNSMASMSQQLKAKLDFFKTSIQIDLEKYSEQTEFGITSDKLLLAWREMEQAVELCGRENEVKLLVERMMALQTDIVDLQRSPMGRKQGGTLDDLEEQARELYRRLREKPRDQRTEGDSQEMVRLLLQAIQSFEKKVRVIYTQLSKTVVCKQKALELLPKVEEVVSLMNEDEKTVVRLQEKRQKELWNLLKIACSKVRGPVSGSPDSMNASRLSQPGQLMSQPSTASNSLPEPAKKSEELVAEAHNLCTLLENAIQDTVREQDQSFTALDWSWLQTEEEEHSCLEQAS
Format: biochemical
Description: Details of the above will be described in detail in [Pharmacological Test] in Examples described below in this specification. IKKβ inhibition assay by fluorescence polarization was performed using IMAP™ IKKβ assay kit (manufactured by Molecular Devices Corporation, catalogue No. R8115) or IMAP™ FP Screening Express kit (manufactured by Molecular Devices Corporation, catalogue No. R8127).
In order to evaluate IKKβ inhibitory activity of the present compounds, an IKKβ inhibition assay by a fluorescence polarization method was conducted. The assay was conducted using IMAP™ IKKβ assay kit (manufactured by Molecular Devices Corporation, catalogue No. R8115) or IMAP™ FP Screening Express kit (manufactured by Molecular Devices Corporation, catalogue No. R8127) in accordance with the protocol attached to each kit. The specific methods are described below.
1) Complete Reaction Buffer: a complete reaction buffer was so prepared to obtain a final composition of 10 mM Tris-HCL (pH 7.2), 10 mM magnesium chloride, 0.1% bovine serum albumin, and 1 mM dithiothreitol.
2) Substrate Working Solution: 400 nM substrate working solution was prepared by dissolving and diluting a fluorescein-labeled IKKβ substrate peptide (amino acid sequence: GRHDSGLDSMK) with the complete reaction buffer.
3) Enzyme Working Solution: 0.2 units/mL enzyme working solution was prepared by diluting IKKβ solution (manufactured by Upstate Biotechnology Inc., catalogue No. 14-485) with the complete reaction buffer.
4) ATP Working Solution: 8 μM ATP working solution was prepared by dissolving ATP into ultrapure water followed by diluting it with the complete reaction buffer.
5) IMAP binding solution: After diluting an IMAP binding buffer with ultrapure water, an IMAP binding solution was prepared by diluting an IMAP binding reagent with the diluted IMAP binding buffer.
A test compound was dissolved in dimethyisulfoxide followed by diluting it with the complete reaction buffer to prepare 4 μM test compound solution.
1) To a 384-well plate, the test compound solution, the enzyme working solution, the substrate working solution, and the ATP working solution were added in an amount of 5 μL per well.
2) Incubation was performed at room temperature for 60 minutes under light shielding.
3) The IMAP binding solution was added in an amount of 60 μL per well.
4) Incubation was performed at room temperature for 30 minutes under light shielding.
5) Fluorescence polarization value of each well was measured by using Analyst™ HT (multimode plate reader manufactured by Molecular Devices Corporation) and Criterion Host Software v2.00 (manufactured by Molecular Devices Corporation).
6) Operations were performed in the same manner as in 1) to 5) except for changing the test compound to 0.4% dimethylsulfoxide. The obtained result was designated as a control.
7) Operations were performed in the same manner as in 1) to 5) except for changing the test compound and the enzyme working solution to 0.4% dimethylsulfoxide and the complete reaction buffer, respectively. The obtained result was designated as a background.
An IKKβ inhibition rate (%) was calculated by the following equation.
IKKβ inhibition rate (%)=100×{1-(fluorescence polarization value of test compound−fluorescence polarization value of background)/(fluorescence polarization value of control−fluorescence polarization value of background)}

First: COc1ccc2c(C(N)=O)c(NC(N)=O)[nH]c2c1 [Compound No. 1-1, 2-Aminocarbonylamino-6-methoxyindole-3-carboxamide]
Second: NC(=O)Nc1[nH]c2cc(O)ccc2c1C(N)=O [Compound No. 2-1, 2-Aminocarbonylamino-6-hydroxyindole-3-carboxamide]
The inhibition at 1 µM of the first is higher: 95% for the first, 90% for the second.

Going from `COc1cccc2c(C(N)=O)c(NC(N)=O)[nH]c12` [Compound No. 1-3, 2-Aminocarbonylamino-7-methoxyindole-3-carboxamide] to `COc1ccc(F)c2c(C(N)=O)c(NC(N)=O)[nH]c12` [Compound No. 1-4, 2-Aminocarbonylamino-4-fluoro-7-methoxyindole-3-carboxamide], the inhibition at 1 µM falls from 78% to 60%.

Going from `NC(=O)Nc1[nH]c2cc(OCC3CC3)ccc2c1C(N)=O` [Compound No. 3-2, 2-Aminocarbonylamino-6-cyclopropylmethyloxyindole-3-carboxamide] to `NC(=O)Nc1[nH]c2cc(Oc3ccnc(Cl)c3)ccc2c1C(N)=O` [Compound No. 4-3, 2-Aminocarbonylamino-6-(2-chloropyridine-4-yloxy)indole-3-carboxamide], the inhibition at 1 µM falls from 91% to 89%.

First: NC(=O)Nc1[nH]c2cc(Oc3ccc([N+](=O)[O-])cc3)ccc2c1C(N)=O [Compound No. 4-1, 2-Aminocarbonylamino-6-(4-nitrophenyloxy)indole-3-carboxamide]
Second: NC(=O)Nc1[nH]c2cc(Oc3ccc(Cl)cc3)ccc2c1C(N)=O [Compound No. 9-1, 2-Aminocarbonylamino-6-(4-chlorophenyloxy)indole-3-carboxamide]
The inhibition at 1 µM of the first is higher: 100% for the first, 92% for the second.

Going from `Cc1cc([N+](=O)[O-])ccc1Oc1ccc2c(C(N)=O)c(NC(N)=O)[nH]c2c1` [Compound No. 4-6, 2-Aminocarbonylamino-6-(2-methyl-4-nitrophenyloxy)indole-3-carboxamide] to `CC(=O)Nc1ccc(Oc2ccc3c(C(N)=O)c(NC(N)=O)[nH]c3c2)cc1` [Compound No. 6-1, 6-(4-Acetylaminophenyloxy)-2-(aminocarbonylamino)indole-3-carboxamide], the inhibition at 1 µM rises from 97% to 98%.

Compared with `C=Cc1cc(F)c2c(C(N)=O)c(NC(N)=O)[nH]c2c1OC` [Compound No. 8-2, 2-Aminocarbonylamino-4-fluoro-7-methoxy-6-vinylindole-3-carboxamide], `COc1c(-c2ccoc2)cc(F)c2c(C(N)=O)c(NC(N)=O)[nH]c12` [Compound No. 8-3, 2-Aminocarbonylamino-4-fluoro-6-(furan-3-yl)-7-methoxyindole-3-carboxamide] is lower in inhibition at 1 µM: 91% for the first, 87% for the second.
